In ChEMBL document CHEMBL3108730, “Exploring the determinants of trace amine-associated receptor 1's functional selectivity for the stereoisomers of amphetamine and methamphetamine” (J Med Chem, 2014):
Activity calls are given as the source filed them. The calls are words filed in the database; no cut-off is given here.

Tests used:
[1] = tested on: Trace amine-associated receptor 1 (Rattus norvegicus), Q923Y9 [M268T]; experiment: Activation of rat TAAR1 transmembrane domain 6 Met268(6.55)Thr mutant expressed in HEK293 cells assessed as stimulation of cAMP production at 0.0001 to 100 uM after 1 hr by chemiluminescent assay relative to beta-phenylethylamine; assay type: functional, cell-based
[2] = biological target: Trace amine-associated receptor 1 (Rattus norvegicus) (UniProt Q923Y9); experiment: Activation of rat wild type TAAR1 expressed in HEK293 cells assessed as stimulation of cAMP production at 0.0001 to 100 uM after 1 hr by chemiluminescent assay relative to beta-phenylethylamine; assay type: functional, cell-based
[3] = biological target: Trace amine-associated receptor 1 (Mus musculus, UniProt Q923Y8, T268M); experiment: Activation of mouse TAAR1 transmembrane domain 6 Thr268(6.55)Met mutant expressed in HEK293 cells assessed as stimulation of cAMP production after 1 hr by chemiluminescent assay; assay type: functional, cell-based
[4] = tested on: Trace amine-associated receptor 1 (Mus musculus), Q923Y8 [Y287N]; experiment: Activation of mouse TAAR1 transmembrane domain 7 Tyr287(7.39)Asn mutant expressed in HEK293 cells assessed as stimulation of cAMP production at 0.0001 to 100 uM after 1 hr by chemiluminescent assay relative to beta-phenylethylamine; assay type: functional, cell-based
[5] = biological target: Trace amine-associated receptor 1 (Mus musculus) (UniProt Q923Y8); experiment: Activation of mouse wild type TAAR1 expressed in HEK293 cells assessed as stimulation of cAMP production at 0.0001 to 100 uM after 1 hr by chemiluminescent assay relative to beta-phenylethylamine; assay type: functional, cell-based
[6] = biological target: Trace amine-associated receptor 1 (Mus musculus, UniProt Q923Y8); experiment: Activation of mouse wild type TAAR1 expressed in HEK293 cells assessed as stimulation of cAMP production after 1 hr by chemiluminescent assay; assay type: functional, cell-based
[7] = tested on: Trace amine-associated receptor 1 (Rattus norvegicus), Q923Y9 [N287Y]; experiment: Activation of rat TAAR1 transmembrane domain 7 Asn287(7.39)Tyr mutant expressed in HEK293 cells assessed as stimulation of cAMP production at 0.0001 to 100 uM after 1 hr by chemiluminescent assay relative to beta-phenylethylamine; assay type: functional, cell-based
[8] = biological target: Trace amine-associated receptor 1 (Mus musculus, UniProt Q923Y8, Y287N); experiment: Activation of mouse TAAR1 transmembrane domain 7 Tyr287(7.39)Asn mutant expressed in HEK293 cells assessed as stimulation of cAMP production after 1 hr by chemiluminescent assay; assay type: functional, cell-based
[9] = tested on: Trace amine-associated receptor 1 (Mus musculus), Q923Y8 [D102A]; experiment: Activation of mouse TAAR1 Asp102(3.32)Ala mutant expressed in HEK293 cells assessed as stimulation of cAMP production at 0.0001 to 100 uM after 1 hr by chemiluminescent assay; assay type: functional, cell-based
[10] = tested on: Trace amine-associated receptor 1 (Mus musculus), Q923Y8 [T268M]; experiment: Activation of mouse TAAR1 transmembrane domain 6 Thr268(6.55)Met mutant expressed in HEK293 cells assessed as stimulation of cAMP production at 0.0001 to 100 uM after 1 hr by chemiluminescent assay relative to beta-phenylethylamine; assay type: functional, cell-based
Mus musculus = species: Mus musculus; experiment: Selectivity ratio of EC50 for mouse wild type TAAR1 to EC50 for mouse TAAR1 transmembrane domain 6 Thr268(6.55)Met mutant
[11] = biological target: Trace amine-associated receptor 1 (Rattus norvegicus, UniProt Q923Y9, M268T); experiment: Activation of rat TAAR1 transmembrane domain 6 Met268(6.55)Thr mutant expressed in HEK293 cells assessed as stimulation of cAMP production after 1 hr by chemiluminescent assay; assay type: functional, cell-based
Rattus norvegicus = species: Rattus norvegicus; experiment: Selectivity ratio of EC50 for rat TAAR1 transmembrane domain 6 Met268(6.55)Thr mutant to EC50 for rat wild type TAAR1
[12] = biological target: Trace amine-associated receptor 1 (Rattus norvegicus, UniProt Q923Y9, N287Y); experiment: Activation of rat TAAR1 transmembrane domain 7 Asn287(7.39)Tyr mutant expressed in HEK293 cells assessed as stimulation of cAMP production after 1 hr by chemiluminescent assay; assay type: functional, cell-based
[13] = biological target: Trace amine-associated receptor 1 (Rattus norvegicus, UniProt Q923Y9); experiment: Activation of rat wild type TAAR1 expressed in HEK293 cells assessed as stimulation of cAMP production after 1 hr by chemiluminescent assay; assay type: functional, cell-based
[14] = tested on: Trace amine-associated receptor 1 (Rattus norvegicus), Q923Y9 [N287Y]; experiment: Activation of rat TAAR1 transmembrane domain 7 Asn287(7.39)Tyr mutant expressed in HEK293 cells assessed as stimulation of cAMP production at 0.0001 to 100 uM after 1 hr by chemiluminescent assay relative to control; assay type: functional, cell-based
[15] = biological target: Trace amine-associated receptor 1 (Mus musculus) (UniProt Q923Y8); experiment: Activation of mouse wild type TAAR1 expressed in HEK293 cells assessed as stimulation of cAMP production at 0.0001 to 100 uM after 1 hr by chemiluminescent assay relative to control; assay type: functional, cell-based
[16] = tested on: Trace amine-associated receptor 1 (Mus musculus), Q923Y8 [T268M]; experiment: Activation of mouse TAAR1 transmembrane domain 6 Thr268(6.55)Met mutant expressed in HEK293 cells assessed as stimulation of cAMP production at 0.0001 to 100 uM after 1 hr by chemiluminescent assay relative to control; assay type: functional, cell-based
[17] = tested on: Trace amine-associated receptor 1 (Rattus norvegicus), Q923Y9 [M268T]; experiment: Activation of rat TAAR1 transmembrane domain 6 Met268(6.55)Thr mutant expressed in HEK293 cells assessed as stimulation of cAMP production at 0.0001 to 100 uM after 1 hr by chemiluminescent assay relative to control; assay type: functional, cell-based
[18] = tested on: Trace amine-associated receptor 1 (Mus musculus), Q923Y8 [Y287N]; experiment: Activation of mouse TAAR1 transmembrane domain 7 Tyr287(7.39)Asn mutant expressed in HEK293 cells assessed as stimulation of cAMP production at 0.0001 to 100 uM after 1 hr by chemiluminescent assay relative to control; assay type: functional, cell-based
[19] = biological target: Trace amine-associated receptor 1 (Rattus norvegicus) (UniProt Q923Y9); experiment: Activation of rat wild type TAAR1 expressed in HEK293 cells assessed as stimulation of cAMP production at 0.0001 to 100 uM after 1 hr by chemiluminescent assay relative to control; assay type: functional, cell-based
[20] = tested on: Trace amine-associated receptor 1 (Rattus norvegicus), Q923Y9 [D102A]; experiment: Activation of rat TAAR1 Asp102(3.32)Ala mutant expressed in HEK293 cells assessed as stimulation of cAMP production at 0.0001 to 100 uM after 1 hr by chemiluminescent assay relative to control; assay type: functional, cell-based
Sequence of Trace amine-associated receptor 1 (Rattus norvegicus), Q923Y9 [D102A] (Q923Y9 whole entry D102A): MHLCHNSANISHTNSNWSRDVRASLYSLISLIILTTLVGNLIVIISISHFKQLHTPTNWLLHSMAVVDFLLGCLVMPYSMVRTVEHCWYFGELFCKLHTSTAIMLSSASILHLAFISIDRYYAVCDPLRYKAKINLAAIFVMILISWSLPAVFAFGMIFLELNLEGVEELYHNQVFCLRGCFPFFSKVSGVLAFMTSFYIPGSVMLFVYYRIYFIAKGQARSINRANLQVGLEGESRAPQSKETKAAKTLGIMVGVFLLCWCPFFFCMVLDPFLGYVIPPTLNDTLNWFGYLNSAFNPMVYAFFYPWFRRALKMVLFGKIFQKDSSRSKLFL

Sequence of Trace amine-associated receptor 1 (Mus musculus), Q923Y8 [D102A] (Q923Y8 whole entry D102A, the tested form may be a part): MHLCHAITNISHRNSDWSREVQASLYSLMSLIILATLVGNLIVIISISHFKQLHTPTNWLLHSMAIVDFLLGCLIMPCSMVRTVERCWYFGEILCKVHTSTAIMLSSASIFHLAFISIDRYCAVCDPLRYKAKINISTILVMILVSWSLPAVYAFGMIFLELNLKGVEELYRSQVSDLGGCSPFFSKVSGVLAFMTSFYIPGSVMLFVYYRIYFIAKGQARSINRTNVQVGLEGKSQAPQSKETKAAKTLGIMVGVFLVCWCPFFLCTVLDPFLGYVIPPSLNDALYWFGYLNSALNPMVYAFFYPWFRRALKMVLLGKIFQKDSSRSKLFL
Sequence of Trace amine-associated receptor 1 (Mus musculus, UniProt Q923Y8, T268M) (Q923Y8 whole entry T268M, the tested form may be a part): as the sequence (Q923Y8 whole entry D102A, the tested form may be a part) above, with A102D, T268M counted along it
Sequence of Trace amine-associated receptor 1 (Mus musculus), Q923Y8 [T268M] (Q923Y8 whole entry T268M, the tested form may be a part): as the sequence (Q923Y8 whole entry D102A, the tested form may be a part) above, with A102D, T268M counted along it
Sequence of Trace amine-associated receptor 1 (Rattus norvegicus) (Q923Y9 whole entry, the tested form may be a part): as the sequence (Q923Y9 whole entry D102A) above, with A102D counted along it
Sequence of Trace amine-associated receptor 1 (Mus musculus, UniProt Q923Y8, Y287N) (Q923Y8 whole entry Y287N, the tested form may be a part): as the sequence (Q923Y8 whole entry D102A, the tested form may be a part) above, with A102D, Y287N counted along it
Sequence of Trace amine-associated receptor 1 (Mus musculus), Q923Y8 [Y287N] (Q923Y8 whole entry Y287N, the tested form may be a part): as the sequence (Q923Y8 whole entry D102A, the tested form may be a part) above, with A102D, Y287N counted along it
Sequence of Trace amine-associated receptor 1 (Rattus norvegicus), Q923Y9 [N287Y] (Q923Y9 whole entry N287Y, the tested form may be a part): as the sequence (Q923Y9 whole entry D102A) above, with A102D, N287Y counted along it
Sequence of Trace amine-associated receptor 1 (Rattus norvegicus, UniProt Q923Y9, N287Y) (Q923Y9 whole entry N287Y, the tested form may be a part): as the sequence (Q923Y9 whole entry D102A) above, with A102D, N287Y counted along it
Sequence of Trace amine-associated receptor 1 (Rattus norvegicus, UniProt Q923Y9, M268T) (Q923Y9 whole entry M268T, the tested form may be a part): as the sequence (Q923Y9 whole entry D102A) above, with A102D, M268T counted along it
Sequence of Trace amine-associated receptor 1 (Rattus norvegicus), Q923Y9 [M268T] (Q923Y9 whole entry M268T, the tested form may be a part): as the sequence (Q923Y9 whole entry D102A) above, with A102D, M268T counted along it
Sequence of Trace amine-associated receptor 1 (Mus musculus, UniProt Q923Y8) (Q923Y8 whole entry, the tested form may be a part): as the sequence (Q923Y8 whole entry D102A, the tested form may be a part) above, with A102D counted along it
Sequence of Trace amine-associated receptor 1 (Mus musculus) (Q923Y8 whole entry, the tested form may be a part): as the sequence (Q923Y8 whole entry D102A, the tested form may be a part) above, with A102D counted along it
Sequence of Trace amine-associated receptor 1 (Rattus norvegicus, UniProt Q923Y9) (Q923Y9 whole entry, the tested form may be a part): as the sequence (Q923Y9 whole entry D102A) above, with A102D counted along it

## C[C@H](N)Cc1ccccc1 [DEXTROAMPHETAMINE]
[1]
  Emax: 93.8%
[2]
  Emax: 102%
[3]
  EC50: 3.98 nM
[4]
  Emax: 93%
[5]
  Emax: 99.8%
[6]
  EC50: 84.6 nM
[7]
  Emax: 103%
[8]
  EC50: 219 nM
[9]
  Activity: inactive
[10]
  Emax: 98%

## C[C@@H](N)Cc1ccccc1 [LEVAMFETAMINE]
[1]
  Emax: 91.6%
[2]
  Emax: 86.7%
[3]
  EC50: 121 nM
[4]
  Emax: 89.4%
[5]
  Emax: 93.6%
[7]
  Emax: 95.8%
[8]
  EC50: 105 nM
[9]
  Activity: inactive
[10]
  Emax: 90.5%

## CN[C@@H](C)Cc1ccccc1 [METHAMPHETAMINE]
Mus musculus
  Ratio EC50: 10
[11]
  EC50: 2040 nM
[1]
  Emax: 94.3%
[2]
  Emax: 94.3%
[3]
  EC50: 17.8 nM
[4]
  Emax: 92.2%
[5]
  Emax: 98%
[6]
  EC50: 279 nM
Rattus norvegicus
  Ratio EC50: 10
[7]
  Emax: 101%
[8]
  EC50: 1820 nM
[9]
  Activity: inactive
[12]
  EC50: 202 nM
[10]
  Emax: 94%
[13]
  EC50: 133 nM

## CN[C@H](C)Cc1ccccc1
Mus musculus
  Ratio EC50: 10
[11]
  EC50: 1110 nM
[1]
  Emax: 77.6%
[2]
  Emax: 82.5%
[3]
  EC50: 126 nM
[4]
  Emax: 89.6%
[5]
  Emax: 96.9%
[6]
  EC50: 843 nM
Rattus norvegicus
  Ratio EC50: 10
[7]
  Emax: 93.3%
[8]
  EC50: 1600 nM
[9]
  Activity: inactive
[12]
  EC50: 330 nM
[10]
  Emax: 91.5%

## NCCc1ccccc1 [PHENETHYLAMINE]
[11]
  EC50: 261 nM
[14]
  Emax: 97.2%
[15]
  Emax: 95%
[3]
  EC50: 47.3 nM
[16]
  Emax: 97.6%
[17]
  Emax: 97.8%
[6]
  EC50: 189 nM
[18]
  Emax: 95.9%
[19]
  Emax: 96.4%
[8]
  EC50: 58.6 nM
[9]
  Activity: inactive
[12]
  EC50: 171 nM
[13]
  EC50: 40.3 nM

## NCCc1ccc(O)cc1
[20]
  Activity: inactive
[9]
  Activity: inactive
